From PubChem BioAssay (NCI)
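96-well plates; 48 h exposure; 5 concentrations. Endpoints by linear interpolation between flanking doses. Not reached: highest tested concentration assigned. The concentration for full growth arrest is given as TGI.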

What was measured:
Experiment in all cases: NCI tumour cell line growth inhibition, 48 h
A549 NSCLC = tested on: A549 NSCLC
ACHN renal = tested on: ACHN renal
BT-549 breast = tested on: BT-549 breast
CAKI-1 renal = tested on: CAKI-1 renal
CCRF-CEM leukemia = tested on: CCRF-CEM leukemia
COLO 205 colon = tested on: COLO 205 colon
DU-145 prostate = tested on: DU-145 prostate
EKVX NSCLC = tested on: EKVX NSCLC
HCT-116 colon = tested on: HCT-116 colon
HCT-15 colon = tested on: HCT-15 colon
HL-60(TB) leukemia = tested on: HL-60(TB) leukemia
HOP-62 NSCLC = tested on: HOP-62 NSCLC
HS 578T breast = tested on: HS 578T breast
HT29 colon = tested on: HT29 colon
IGROV1 ovarian = tested on: IGROV1 ovarian
K-562 leukemia = tested on: K-562 leukemia
KM12 colon = tested on: KM12 colon
LOX IMVI melanoma = tested on: LOX IMVI melanoma
M14 melanoma = tested on: M14 melanoma
MALME-3M melanoma = tested on: MALME-3M melanoma
MCF7 breast = tested on: MCF7 breast
MDA-MB-231 breast = tested on: MDA-MB-231 breast
MDA-MB-435 = tested on: MDA-MB-435
MDA-N = tested on: MDA-N
MOLT-4 leukemia = tested on: MOLT-4 leukemia
NCI-H23 lung = tested on: NCI-H23 lung
NCI-H460 lung = tested on: NCI-H460 lung
NCI/ADR-RES ovarian = tested on: NCI/ADR-RES ovarian
OVCAR-3 ovarian = tested on: OVCAR-3 ovarian
OVCAR-4 ovarian = tested on: OVCAR-4 ovarian
OVCAR-5 ovarian = tested on: OVCAR-5 ovarian
OVCAR-8 ovarian = tested on: OVCAR-8 ovarian
PC-3 prostate = tested on: PC-3 prostate
RPMI-8226 leukemia = tested on: RPMI-8226 leukemia
RXF 393 renal = tested on: RXF 393 renal
SF-268 CNS = tested on: SF-268 CNS
SF-295 CNS = tested on: SF-295 CNS
SF-539 CNS = tested on: SF-539 CNS
SK-MEL-28 melanoma = tested on: SK-MEL-28 melanoma
SK-MEL-5 melanoma = tested on: SK-MEL-5 melanoma
SK-OV-3 ovarian = tested on: SK-OV-3 ovarian
SN12C renal = tested on: SN12C renal
SNB-19 CNS = tested on: SNB-19 CNS
SNB-75 CNS = tested on: SNB-75 CNS
SR leukemia = tested on: SR leukemia
SW-620 colon = tested on: SW-620 colon
T-47D breast = tested on: T-47D breast
TK-10 renal = tested on: TK-10 renal
U251 CNS = tested on: U251 CNS
UACC-257 melanoma = tested on: UACC-257 melanoma
UACC-62 melanoma = tested on: UACC-62 melanoma
UO-31 renal = tested on: UO-31 renal
786-0 renal = tested on: 786-0 renal
HCC-2998 colon = tested on: HCC-2998 colon
NCI-H226 lung = tested on: NCI-H226 lung
NCI-H522 lung = tested on: NCI-H522 lung

Measured: TGI

COc1ccc(CCn2nccc2C)cc1
not listed: 786-0 renal | HCC-2998 colon | NCI-H226 lung | NCI-H522 lung
> 100 µM: all other assays above

CN(C(=O)CC(=O)CP(=O)(c1ccccc1)c1ccccc1)c1ccccc1
not listed: LOX IMVI melanoma | MALME-3M melanoma | OVCAR-5 ovarian
> 100 µM: all other assays above
